Assays:
[1] = cited from earlier work
[2] = cited from earlier work; remark: listed apart in the source
[3] = Solubility capability of drug-in-IL (organic acid/MGM ionic liquids), confirmed by PXRD; assay type: physicochemical; details: for upper limit of drug dissolution in IL: PXRD
[4] = as above; assay type: physicochemical; details: for upper limit of drug dissolution in IL: in GA-MGM 1:1, PXRD
Protocol: […] Next, 1, 10, 20… w/w% of each drug and water and ethanol as the solvent was added to the MGM and organic acid solution, and then the preparation was sonicated to be completely dissolved. The resulting solution was evaporated using a thermostat at 65 °C and then vacuum-dried at 40 °C for 24 h.
The solubilization power of ILs is attributed to a range of interactions, such as ionic, van der Waals, π–π, and hydrogen bonding. […] To determine the solubility capability of the ILs, drug-in-IL complexes were prepared. Subsequently, these complexes were analyzed via PXRD to confirm dissolution. PXRD is a technique used to validate the crystalline structure of a drug or excipients in a preparation. The absence of a drug’s crystal form in PXRD indicates the complete solubilization of the drug in the IL.

Compound | pKa [1] | Log P [2] | further results
Oc1ncnc2[nH]ncc12 [Allopurinol (ALP), Allopurinol] | 9.34 | −1.80 | 
O=C(O)CCCCCCCC(=O)O [Azelaic acid (AA), Azelaic acid] | 4.55 | 1.57 | 
C[C@H](CS)C(=O)N1CCC[C@H]1C(=O)O [Captopril (CPP), Captopril] | 3.64 |  | upper limit of drug dissolution in IL ([3]; in AA-MGM 1:2): greater than 10%; upper limit of drug dissolution in IL ([3]; in TA-MGM 1:2): 80%; upper limit of drug dissolution in IL [4]: ≥ 20%
COc1ccccc1OCCNCC(O)COc1cccc2[nH]c3ccccc3c12 (centres unmarked) [Carvedilol (CVD), Carvedilol] |  | 4.19 | 
COC1=C(OC)C(=O)C(C/C=C(\C)CC/C=C(\C)CC/C=C(\C)CC/C=C(\C)CC/C=C(\C)CC/C=C(\C)CC/C=C(\C)CC/C=C(\C)CC/C=C(\C)CCC=C(C)C)=C(C)C1=O [Coenzyme Q10 (CoQ10), Coenzyme Q10] | 10.9 | 9.94 | upper limit of drug dissolution in IL ([3]; in AA-MGM 1:2): greater than 10%
CC(C)N(CCC(C(N)=O)(c1ccccc1)c1ccccn1)C(C)C (centres unmarked) [Disopyramide (DPA), Disopyramide] |  |  | solubility in ILs ([4]; all ILs (TA/MGM, AA/MGM, GA/MGM, CPA/MGM)): 100%
CCOc1ccccc1C(N)=O [Ethenzamide (ETZ), Ethenzamide] | 13.7 | 1.02 | 
COc1cc(/C=C/C(=O)O)ccc1O [Ferulic acid (FA), Ferulic acid] | 4.58 |  | 
CC(C(=O)O)c1ccc(-c2ccccc2)c(F)c1 (centres unmarked) [Flurbiprofen (FRP), Flurbiprofen] | 3.78 |  | upper limit of drug dissolution in IL ([3]; in AA-MGM 1:2): greater than 10%; upper limit of drug dissolution in IL ([3]; in TA-MGM 1:2): 10%; upper limit of drug dissolution in IL [4]: ≥ 20%
CC(C)=CCC/C(C)=C/C(=O)O [Geranic acid (GA), Geranic acid] | 5.26 | 3.07 | 
O=[N+]([O-])O[C@@H]1CO[C@H]2[C@@H]1OC[C@@H]2O [Isosorbide mononitrate (ISMN), Isosorbide mononitrate] |  | −0.15 | dissolution of drug in IL by PXRD (drug-derived crystal peaks) ([3]; 5% and 10% drug in TA-MGM 1:2): cannot be completely dissolved; upper limit of drug dissolution in IL ([3]; in AA-MGM 1:2): greater than 10%; upper limit of drug dissolution in IL [4]: ≥ 20%
CNC[C@H](O)[C@@H](O)[C@H](O)[C@H](O)CO [Meglumine (MGM), Meglumine] | 9.52 |  | 
CC1COc2c(N3CCN(C)CC3)c(F)cc3c(=O)c(C(=O)O)cn1c23 (centres unmarked) [Ofloxacin (OFLX), Ofloxacin] |  | −0.48 | pKa1 [1]: 5.97; pKa2 [1]: 9.28
C[C@@H]1O[C@@H](OC[C@H]2O[C@@H](Oc3c(-c4ccc(O)c(O)c4)oc4cc(O)cc(O)c4c3=O)[C@H](O)[C@@H](O)[C@@H]2O)[C@H](O)[C@H](O)[C@H]1O [Rutin] | 6.43 | −1.33 | upper limit of drug dissolution in IL ([3]; in AA-MGM 1:2): greater than 10%; upper limit of drug dissolution in IL [4]: ≥ 20%
O=C(O)C(O)C(O)C(=O)O (centres unmarked) [Tartaric acid (TA), Tartaric acid] |  | −1.8 | 
Curcumin [Curcumin (CCM)] | 8.09 |  | 
Minoxidil [Minoxidil (MXD)] | 4.61 | 1.24 | 

Reference: publication PMC10974018, “The Development and Characterization of Novel Ionic Liquids Based on Mono- and Dicarboxylates with Meglumine for Drug Solubilizers and Skin Permeation Enhancers” (Pharmaceutics, 2024)
